Data: patent US4740501A (priority 1985, dated 1988)
Like-named read-outs stand apart in the source and are kept apart here.

What was measured:
Assay type in all cases: cell-based
[1] = system: L1210S; assay: cells; conditions: read-out: T.C.D.50
[2] = system: L1210DDP; assay: cells
[3] = system: L1210 MTX; assay: MTX and cisplatin cross-resistance test, 24 hour exposure

SMILES	IC50 ([1]; parental L1210S)	resistance of L1210DDP compared to L1210S [2]	IC50 ([2]; read-out: T.C.D.50)	IC50 [1]	resistance of L1210 MTX compared to L1210S [3]	IC50 ([3]; Mus musculus, L1210 MTX, characterisation of resistant line, read-out: T.C.D.50)
N.N.[Cl][Pt][Cl] [cisplatin, cis-diamminedichloroplatinum (II), reference compound]	1500 nM	20 fold	30 µM			
CN(Cc1cnc2nc(N)nc(N)c2n1)c1ccc(C(=O)N[C@@H](CCC(=O)O)C(=O)O)cc1 [MTX, methotrexate, reference compound]				5 nM	100 times	500 nM
